Test results published in US7964624B1, “Inhibitors of serine proteases” (priority 2005, dated 2011).

Target: T1, HCV NS3 protease domain (Hepatitis C virus genotype 1b, UniProt Q9WMX2)
T1 construct: The first 181 amino acids of NS3 (residues 1027-1207 of the viral polyprotein); hexa-histidine (C); made in house; host or cells: E. coli BL21/DE3 pLysS
Assay: biochemical
Conditions: Enzyme Assay 1 (HCV NS3 Protease Domain Peptide Cleavage Assay) activity, apparent Ki class

T1 sequence (Q9WMX2 1027-1207, other chains not shown): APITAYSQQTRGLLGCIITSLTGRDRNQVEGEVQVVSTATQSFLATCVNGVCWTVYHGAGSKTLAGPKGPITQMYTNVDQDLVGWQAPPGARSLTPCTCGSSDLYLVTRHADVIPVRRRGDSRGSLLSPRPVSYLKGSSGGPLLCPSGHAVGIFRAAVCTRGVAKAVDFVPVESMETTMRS

## CCC[C@H](NC(=O)[C@@H]1C[C@]2(CC(c3cccc(Cl)c3)=NO2)CN1C(=O)[C@@H](NC(=O)CCc1ccc(F)cc1)C(C)(C)C)C(=O)C(=O)NC1CC1 [Compound 7]
  Ki: > 500 nM

## CCC[C@H](NC(=O)[C@@H]1C[C@]2(CC(c3ccc(OC)c(OC4CCCC4)c3)=NO2)CN1C(=O)[C@@H](NC(=O)O[C@H]1CCOC1)C(C)(C)C)C(=O)C(=O)NC1CC1 [Compound 8]
  Ki: > 500 nM

## CCC[C@H](NC(=O)[C@@H]1C[C@]2(CC(c3ccc(C)c(F)c3)=NO2)CN1C(=O)O[C@H]1CCOC1)C(=O)C(=O)NC1CC1 [Compound 11]
  Ki: > 500 nM

## CCC[C@H](NC(=O)[C@@H]1C[C@]2(CC(c3cccc(Cl)c3)=NO2)CN1C(=O)[C@@H](NC(=O)OCC1CCCC1)C(C)(C)C)C(=O)C(=O)NC1CC1 [Compound 14]
  Ki: > 500 nM

## CCC[C@H](NC(=O)[C@@H]1C[C@]2(CC(c3ccc(OC)c(Cl)c3)=NO2)CN1C(=O)[C@@H](NC(=O)O[C@H]1CCOC1)C(C)(C)C)C(=O)C(=O)NC1CC1 [Compound 15]
  Ki: 100 to 500 nM

## CCC[C@H](NC(=O)[C@@H]1C[C@]2(CC(c3ccc(OC)cc3)=NO2)CN1C(=O)[C@@H](NC(=O)CC1CCOCC1)C(C)(C)C)C(=O)C(=O)NC1CC1 [Compound 16]
  Ki: > 500 nM

## CCC[C@H](NC(=O)[C@@H]1C[C@]2(CC(c3cccc(Cl)c3)=NO2)CN1C(=O)[C@@H](NC(=O)C1(O)CCCC1)C(C)(C)C)C(=O)C(=O)NC1CC1 [Compound 20]
  Ki: > 500 nM

## CCC[C@H](NC(=O)[C@@H]1C[C@]2(CC(c3cccc(F)c3)=NO2)CN1C(=O)[C@@H](NC(=O)O[C@H]1CCOC1)C(C)(C)C)C(=O)C(=O)NC1CC1 [Compound 24]
  Ki: 100 to 500 nM

## CCC[C@H](NC(=O)[C@@H]1C[C@]2(CC(c3cccc(Cl)c3)=NO2)CN1C(=O)[C@@H](NC(=O)OCC1CCC1)C(C)(C)C)C(=O)C(=O)NC1CC1 [Compound 27]
  Ki: 100 to 500 nM

## CCC[C@H](NC(=O)[C@@H]1C[C@]2(CC(c3ccc(Cl)c(Cl)c3)=NO2)CN1C(=O)[C@@H](NC(=O)O[C@H]1CCOC1)C(C)(C)C)C(=O)C(=O)NC1CC1 [Compound 32]
  Ki: 100 to 500 nM

## CCC[C@H](NC(=O)[C@@H]1C[C@]2(CC(c3cccc(Cl)c3)=NO2)CN1C(=O)[C@@H](NC(=O)NC1CCCCC1)C(C)(C)C)C(=O)C(=O)NC1CC1 [Compound 33]
  Ki: < 100 nM

## CCC[C@H](NC(=O)[C@@H]1C[C@]2(CC(c3ccc(C)c(C)c3)=NO2)CN1C(=O)[C@@H](NC(=O)O[C@H]1CCOC1)C(C)(C)C)C(=O)C(=O)NC1CC1 [Compound 36]
  Ki: 100 to 500 nM

## CCC[C@H](NC(=O)[C@@H]1C[C@]2(CC(c3cccc(Cl)c3)=NO2)CN1C(=O)[C@@H](NC(=O)CC1CCOCC1)C1CCCCC1)C(=O)C(=O)NC1CC1 [Compound 37]
  Ki: > 500 nM

## CCC[C@H](NC(=O)[C@@H]1C[C@]2(CC(c3cccc(Cl)c3)=NO2)CN1C(=O)[C@@H](NC(=O)OCc1ccccc1Cl)C(C)(C)C)C(=O)C(=O)NC1CC1 [Compound 39]
  Ki: 100 to 500 nM

## CCC[C@H](NC(=O)[C@@H]1C[C@]2(CC(c3cncc(Br)c3)=NO2)CN1C(=O)[C@@H](NC(=O)CC1CCCCC1)C(C)(C)C)C(=O)C(=O)NC1CC1 [Compound 41]
  Ki: < 100 nM

## CCC[C@H](NC(=O)[C@@H]1C[C@]2(CC(c3cccc(Cl)c3)=NO2)CN1C(=O)[C@@H](NC(=O)CCC(C)=O)C(C)(C)C)C(=O)C(=O)NC1CC1 [Compound 44]
  Ki: 100 to 500 nM

## CCC[C@H](NC(=O)[C@@H]1C[C@]2(CC(c3ccc(CC)cc3)=NO2)CN1C(=O)O[C@H]1CCOC1)C(=O)C(=O)NC1CC1 [Compound 47]
  Ki: > 500 nM

## CCC[C@H](NC(=O)C1C[C@]2(CC(c3ccc4c(c3)OCO4)=NO2)CN1C(=O)c1ccc[nH]1)C(=O)C(=O)NC1CC1 (stereo partly shown) [Compound 51]
  Ki: > 500 nM

## CCC[C@H](NC(=O)C1C[C@]2(CC(c3ccc(C(F)(F)F)cc3)=NO2)CN1C(=O)[C@@H](NC(=O)O[C@H]1CCOC1)C(C)(C)C)C(=O)C(=O)NC1CC1 (stereo partly shown) [Compound 52]
  Ki: 100 to 500 nM

## CCC[C@H](NC(=O)[C@@H]1C[C@]2(CC(c3ccccc3)=NO2)CN1C(=O)CC1CCN(Cc2c(Cl)cccc2Cl)CC1)C(=O)C(=O)NC1CC1 [Compound 53]
  Ki: > 500 nM

## CCC[C@H](NC(=O)[C@@H]1C[C@]2(CC(c3ccc(Cl)cc3)=NO2)CN1C(=O)[C@@H](NC(=O)CC1CCCCC1)C(C)(C)C)C(=O)C(=O)NC1CC1 [Compound 55]
  Ki: 100 to 500 nM

## CCC[C@H](NC(=O)[C@@H]1C[C@]2(CC(C3CCCC3)=NO2)CN1C(=O)[C@@H](NC(=O)O[C@H]1CCOC1)C(C)(C)C)C(=O)C(=O)NC1CC1 [Compound 70]
  Ki: > 500 nM

## CCC[C@H](NC(=O)[C@@H]1C[C@]2(CC(c3cccc(Cl)c3)=NO2)CN1C(=O)[C@@H](NC(=O)[C@H]1COc2ccccc2O1)C(C)(C)C)C(=O)C(=O)NC1CC1 [Compound 71]
  Ki: > 500 nM

## CCC[C@H](NC(=O)[C@@H]1C[C@]2(CC(c3cccc(Cl)c3)=NO2)CN1C(=O)[C@@H](NC(=O)CC1CCCC1)C(C)(C)C)C(=O)C(=O)NC1CC1 [Compound 72]
  Ki: 100 to 500 nM

## CCC[C@H](NC(=O)[C@@H]1C[C@]2(CC(c3cccc(Cl)c3)=NO2)CN1C(=O)[C@@H](NC(=O)Cc1sc(C)nc1C)C(C)(C)C)C(=O)C(=O)NC1CC1 [Compound 75]
  Ki: 100 to 500 nM

## CCC[C@H](NC(=O)[C@@H]1C[C@]2(CC(c3cccc(Cl)c3)=NO2)CN1C(=O)[C@@H](NC(=O)NC1CC1)C(C)(C)C)C(=O)C(=O)NC1CC1 [Compound 76]
  Ki: 100 to 500 nM

## CCC[C@H](NC(=O)[C@@H]1C[C@]2(CC(c3ccc(Cl)c(Cl)c3)=NO2)CN1C(=O)[C@@H](NC(=O)CC1CCOCC1)C(C)(C)C)C(=O)C(=O)NC1CC1 [Compound 78]
  Ki: 100 to 500 nM

## CCC[C@H](NC(=O)[C@@H]1C[C@@]2(CC(c3ccccc3)=NO2)CN1C(=O)c1ccc[nH]1)C(=O)C(=O)NC1CC1 [Compound 80]
  Ki: > 500 nM

## CCC[C@H](NC(=O)[C@@H]1C[C@]2(CC(c3cccc(Cl)c3)=NO2)CN1C(=O)[C@@H](NC(=O)CN1CCOCC1)C(C)(C)C)C(=O)C(=O)NC1CC1 [Compound 81]
  Ki: > 500 nM

## CCC[C@H](NC(=O)[C@@H]1C[C@]2(CC(c3ccc4c(c3)OCO4)=NO2)CN1C(=O)[C@@H](NC(=O)CC1CCOCC1)C(C)(C)C)C(=O)C(=O)NC1CC1 [Compound 82]
  Ki: 100 to 500 nM

## CCC[C@H](NC(=O)[C@@H]1C[C@]2(CC(c3cccc(Cl)c3)=NO2)CN1C(=O)[C@@H](NC(=O)O[C@H]1CCOC1)C(C)(C)C)C(=O)C(=O)NC1CC1 [Compound 83]
  Ki: 100 to 500 nM

## CCC[C@H](NC(=O)[C@@H]1C[C@]2(CC(c3cccc(Cl)c3)=NO2)CN1C(=O)[C@@H](NC(=O)OCCF)C(C)(C)C)C(=O)C(=O)NC1CC1 [Compound 85]
  Ki: 100 to 500 nM

## CCC[C@H](NC(=O)[C@@H]1C[C@]2(CC(c3cccc(Cl)c3)=NO2)CN1C(=O)[C@@H](NC(=O)CC1CCOCC1)C(C)(C)C)C(=O)C(=O)NC1CC1 [Compound 92]
  Ki: 100 to 500 nM

## CCC[C@H](NC(=O)[C@@H]1C[C@]2(CC(c3cccc(Cl)c3)=NO2)CN1C(=O)[C@@H](NC(=O)NCC(N)=O)C(C)(C)C)C(=O)C(=O)NC1CC1 [Compound 94]
  Ki: < 100 nM

## CCC[C@H](NC(=O)[C@@H]1C[C@]2(CC(c3cc(F)cc(Cl)c3)=NO2)CN1C(=O)[C@@H](NC(=O)CC1CCCCC1)C(C)(C)C)C(=O)C(=O)NC1CC1 [Compound 95]
  Ki: 100 to 500 nM

## CCC[C@H](NC(=O)[C@@H]1C[C@]2(CC(c3ccccc3)=NO2)CN1C(=O)[C@@H](NS(=O)(=O)c1cccc2ccccc12)C(C)(C)C)C(=O)C(=O)NC1CC1 [Compound 101]
  Ki: > 500 nM

## CCC[C@H](NC(=O)[C@@H]1C[C@]2(CC(c3cccc(Cl)c3)=NO2)CN1C(=O)[C@@H](NC(=O)Cc1ccc(C)c(F)c1)C(C)(C)C)C(=O)C(=O)NC1CC1 [Compound 102]
  Ki: 100 to 500 nM

## CCC[C@H](NC(=O)[C@@H]1C[C@]2(CC(c3cccc(Cl)c3)=NO2)CN1C(=O)[C@@H](NC(=O)NCC)C1CCCCC1)C(=O)C(=O)NC1CC1 [Compound 103]
  Ki: 100 to 500 nM

## CCC[C@H](NC(=O)[C@@H]1C[C@]2(CC(c3cc(F)cc(F)c3)=NO2)CN1C(=O)[C@@H](NC(=O)O[C@H]1CCOC1)C(C)(C)C)C(=O)C(=O)NC1CC1 [Compound 106]
  Ki: > 500 nM

## CCC[C@H](NC(=O)[C@@H]1C[C@]2(CC(c3ccccc3)=NO2)CN1C(=O)[C@@H](NC(=O)NCc1ccccc1)C(C)(C)C)C(=O)C(=O)NC1CC1 [Compound 107]
  Ki: 100 to 500 nM

## CCC[C@H](NC(=O)[C@@H]1C[C@]2(CC(c3cccc(Cl)c3)=NO2)CN1C(=O)[C@@H](NC(=O)[C@H]1CC[C@@H](OC)CC1)C(C)(C)C)C(=O)C(=O)NC1CC1 [Compound 108]
  Ki: 100 to 500 nM

## CCC[C@H](NC(=O)[C@@H]1C[C@]2(CC(c3ccc(Cl)c(C)c3)=NO2)CN1C(=O)[C@@H](NC(=O)O[C@H]1CCOC1)C(C)(C)C)C(=O)C(=O)NC1CC1 [Compound 109]
  Ki: < 100 nM

## CCC[C@H](NC(=O)[C@@H]1C[C@]2(CC(c3cc(Cl)c(OC)cc3OC)=NO2)CN1C(=O)[C@@H](NC(=O)OCc1ccccc1)C(C)(C)C)C(=O)C(=O)NC1CC1 [Compound 110]
  Ki: 100 to 500 nM

## CCC[C@H](NC(=O)[C@@H]1C[C@]2(CC(c3cccc(Cl)c3)=NO2)CN1C(=O)[C@@H](NC(=O)OCCc1ccc(F)cc1)C(C)(C)C)C(=O)C(=O)NC1CC1 [Compound 118]
  Ki: > 500 nM

## CCC[C@H](NC(=O)[C@@H]1C[C@]2(CC(c3cccc(Cl)c3)=NO2)CN1C(=O)[C@@H](NC(=O)NCc1cccc(F)c1)C(C)(C)C)C(=O)C(=O)NC1CC1 [Compound 122]
  Ki: 100 to 500 nM

## CCC[C@H](NC(=O)[C@@H]1C[C@]2(CC(c3cccc(Cl)c3)=NO2)CN1C(=O)[C@@H](NC(=O)NCC)C(C)(C)C)C(=O)C(=O)NC1CC1 [Compound 123]
  Ki: < 100 nM

## CCC[C@H](NC(=O)[C@@H]1C[C@]2(CC(c3cccc(Cl)c3)=NO2)CN1C(=O)[C@@H](NC(=O)Nc1ccc(N2C(=O)C=CC2=O)cc1)C(C)(C)C)C(=O)C(=O)NC1CC1 [Compound 128]
  Ki: 100 to 500 nM

## CCC[C@H](NC(=O)[C@@H]1C[C@]2(CC(c3cccc(Cl)c3)=NO2)CN1C(=O)[C@@H](NC(=O)c1cn(C(C)C)c2ccccc2c1=O)C(C)(C)C)C(=O)C(=O)NC1CC1 [Compound 135]
  Ki: > 500 nM

## CCC[C@H](NC(=O)[C@@H]1C[C@]2(CC(c3cccc(Cl)c3)=NO2)CN1C(=O)[C@@H](NC(=O)[C@](C)(O)c1ccccc1)C(C)(C)C)C(=O)C(=O)NC1CC1 [Compound 139]
  Ki: > 500 nM
